Data on 2 compounds can be found in patent EP0383759B1 (Discovery Therapeutics, Inc., priority 1987, dated 1988).

The test system of assay [1] is A1 or A2 receptors. Kind of assay: comparison of activity across the A1 and A2 adenosine receptor systems (discussion). The format is biochemical. To be noted: result in words. The protocol:
Human platelet, rat pheochromocytoma (PC12) cell, rat fat cell and rat cerebral cortex membranes were prepared as described (4,5,6). Adenylate cyclase activity and binding of [^3H]PIA to cerebral cortex membranes were determined essentially as described (4,5,6).
KB values for the compounds were determined as described (4). […] EC50 and IC50 values for the agonists were obtained from the concentration-response curves by linear regression after logit-log transformation. KB values of the antagonists were calculated using the Schild equation KB = C/(CR-1), where C denotes the concentration of the competitor and CR the ratio of the EC50 and IC50 values in the presence and absence, respectively, of the competitor. IC50 of the compounds for inhibition of [^3H]PIA binding to cerebral cortex membranes were transformed into Ki values as described (6).

Assay [2] addresses T1, A1 adenosine receptor (Cavia porcellus, UniProt P47745).
T1 construct: The left atria from male guinea pigs were isolated; from tissue; host or cells: isolated guinea pig left atrium
T1 sequence (P47745 1-326): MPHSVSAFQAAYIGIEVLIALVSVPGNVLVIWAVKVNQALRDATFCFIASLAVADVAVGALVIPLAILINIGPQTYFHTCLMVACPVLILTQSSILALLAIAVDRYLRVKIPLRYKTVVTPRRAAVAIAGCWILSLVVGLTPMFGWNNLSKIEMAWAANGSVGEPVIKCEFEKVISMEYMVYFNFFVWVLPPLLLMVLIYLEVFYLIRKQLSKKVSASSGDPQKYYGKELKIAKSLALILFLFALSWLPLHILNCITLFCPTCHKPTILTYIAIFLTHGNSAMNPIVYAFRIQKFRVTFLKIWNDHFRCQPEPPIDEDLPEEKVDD
Briefly: antagonism of adenosine agonists' reduction in force of contraction of guinea pig atrium. The format is cell-based. To be noted: guinea pig atria, result in words. The protocol: The left atria from male guinea pigs were isolated, suspended between two punctate electrodes, and placed in a 20 ml organ bath that contained Krebs-Hensileit solution that was continuously gassed with 95% O2 + 5% CO2 and maintained at 31°C. The resting tension was one gram. Theatria were stimulated electrically at 1 hz, 1 ms duration pulses at supramaximal voltage. The force of contraction was recorded isometrically.
(§1) The ability of the compounds to antagonize the effects of agonists was analyzed using modified Schild plots.

Assay [3] deals with A2-adenosine receptors. Briefly: antagonism of adenosine agonists' decrease in contractile tone of guinea pig taenia caecum. Type of assay: cell-based. To be noted: result in words. The protocol:
The tissues were suspended in a 20 ml organ bath containing de Jalon's solution that was gassed with 95% O2 + 5% CO2 and maintained at 31°C. The resting tension was 1.5 g. The contractile response was measured isotonically.
as §1

The test system of assay [4] is heart rate and blood pressure. Kind of assay: in vivo heart rate and blood pressure in anesthetized rats after adenosine or NECA. To be noted: urethan-anesthetized rats, prior administration. The source says:
Drug injections were made intravenously through a jugular cannula.

On to `COc1cc(CCNc2ncnc3c2ncn3C)cc(OC)c1OC`, for which the “selectivity for A1 or A2 receptors” value in assay [1] is given as “selectivity for A2 receptors”.

On to `Cn1cnc2c(N[C@H]3C[C@H]4CC[C@@H]3C4)ncnc21` (relative stereo) [Example 22, N^6-(endonorbornyl)-9-methyladenine], for which, in assay [2], the “antagonism at adenosine receptors in the atria” value was “competitive antagonists”. In addition, the “antagonism at adenosine receptors in the atria” value in assay [2] (listed as Ex. 22) was “the most potent antagonist”. For the same compound, in assay [3], the “antagonism of the effects of adenosine agonists in relaxing the taenia caecum” value is “did not competitively antagonize”. Moreover, in assay [4], the “NECA-induced decrease in blood pressure” value is on record as “minimally affecting” and the “effects of NECA on the heart” value is “attenuated”.
